Activity calls are given as the source filed them. For most assays here, no stated cut-off is given here; in the data, actives have a measured Kd and inactives only a lower limit.
Key:
[1] = molecular target: Mitogen-activated protein kinase kinase kinase kinase 5 (Homo sapiens, UniProt Q9Y4K4)
[2] = molecular target: T1, Pyridoxal kinase (Homo sapiens, UniProt O00764)
T1 sequence (O00764 whole entry): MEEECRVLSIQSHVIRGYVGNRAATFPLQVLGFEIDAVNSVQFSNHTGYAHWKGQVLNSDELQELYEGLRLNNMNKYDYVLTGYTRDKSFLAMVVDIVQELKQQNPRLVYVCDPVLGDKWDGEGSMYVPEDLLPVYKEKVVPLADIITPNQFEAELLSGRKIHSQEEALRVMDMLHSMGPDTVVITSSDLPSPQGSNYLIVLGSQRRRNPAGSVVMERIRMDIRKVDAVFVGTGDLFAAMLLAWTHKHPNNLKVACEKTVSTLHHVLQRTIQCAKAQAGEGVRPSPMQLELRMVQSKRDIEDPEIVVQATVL

[3] = molecular target: T2, Serine/threonine-protein kinase D3 (Homo sapiens, UniProt O94806)
T2 sequence (O94806 whole entry): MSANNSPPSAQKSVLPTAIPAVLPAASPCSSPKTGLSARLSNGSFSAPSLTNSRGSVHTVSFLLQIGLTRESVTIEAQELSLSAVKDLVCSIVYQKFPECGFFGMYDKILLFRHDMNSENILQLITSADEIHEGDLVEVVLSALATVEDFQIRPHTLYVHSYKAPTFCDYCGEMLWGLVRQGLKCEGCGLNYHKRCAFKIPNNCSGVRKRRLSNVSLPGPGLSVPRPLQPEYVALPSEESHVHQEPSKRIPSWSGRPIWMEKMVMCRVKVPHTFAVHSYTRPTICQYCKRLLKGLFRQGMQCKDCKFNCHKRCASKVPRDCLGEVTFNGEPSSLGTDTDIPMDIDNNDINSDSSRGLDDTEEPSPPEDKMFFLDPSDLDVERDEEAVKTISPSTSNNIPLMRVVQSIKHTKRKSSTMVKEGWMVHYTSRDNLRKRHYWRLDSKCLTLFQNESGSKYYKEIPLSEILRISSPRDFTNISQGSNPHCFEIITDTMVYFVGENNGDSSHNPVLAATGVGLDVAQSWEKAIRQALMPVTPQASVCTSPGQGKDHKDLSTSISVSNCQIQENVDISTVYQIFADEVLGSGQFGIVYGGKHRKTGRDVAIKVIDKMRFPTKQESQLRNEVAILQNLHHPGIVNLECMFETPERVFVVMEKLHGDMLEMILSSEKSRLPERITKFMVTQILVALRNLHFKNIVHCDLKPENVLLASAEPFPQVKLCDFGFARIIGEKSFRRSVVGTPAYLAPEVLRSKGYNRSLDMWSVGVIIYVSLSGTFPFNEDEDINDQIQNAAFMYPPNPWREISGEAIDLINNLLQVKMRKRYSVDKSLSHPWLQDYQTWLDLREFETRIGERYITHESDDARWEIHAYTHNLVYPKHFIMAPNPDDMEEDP

[4] = molecular target: ATP-dependent RNA helicase DDX3X (Homo sapiens, UniProt O00571)
[5] = molecular target: Adenosine kinase (Homo sapiens, UniProt P55263)
[6] = molecular target: T3, MAP kinase-activated protein kinase 5 (Homo sapiens, UniProt Q8IW41)
T3 sequence (Q8IW41 whole entry): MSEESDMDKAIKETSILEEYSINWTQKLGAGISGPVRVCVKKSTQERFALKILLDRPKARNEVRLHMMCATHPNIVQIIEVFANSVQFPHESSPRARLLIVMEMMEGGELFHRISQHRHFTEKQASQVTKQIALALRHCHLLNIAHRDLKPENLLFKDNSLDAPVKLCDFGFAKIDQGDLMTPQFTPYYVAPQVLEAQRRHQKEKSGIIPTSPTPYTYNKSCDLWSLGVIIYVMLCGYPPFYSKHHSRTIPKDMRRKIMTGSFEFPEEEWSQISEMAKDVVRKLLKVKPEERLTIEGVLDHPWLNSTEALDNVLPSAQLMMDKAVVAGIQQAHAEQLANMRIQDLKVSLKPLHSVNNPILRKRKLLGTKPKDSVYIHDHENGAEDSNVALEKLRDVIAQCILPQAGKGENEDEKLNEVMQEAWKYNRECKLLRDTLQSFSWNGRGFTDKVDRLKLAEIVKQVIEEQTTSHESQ

[7] = molecular target: Tyrosine-protein kinase Fer (Homo sapiens, UniProt P16591)
[8] = molecular target: T4, Calcium/calmodulin-dependent protein kinase type IV (Homo sapiens, UniProt Q16566)
T4 sequence (Q16566 whole entry): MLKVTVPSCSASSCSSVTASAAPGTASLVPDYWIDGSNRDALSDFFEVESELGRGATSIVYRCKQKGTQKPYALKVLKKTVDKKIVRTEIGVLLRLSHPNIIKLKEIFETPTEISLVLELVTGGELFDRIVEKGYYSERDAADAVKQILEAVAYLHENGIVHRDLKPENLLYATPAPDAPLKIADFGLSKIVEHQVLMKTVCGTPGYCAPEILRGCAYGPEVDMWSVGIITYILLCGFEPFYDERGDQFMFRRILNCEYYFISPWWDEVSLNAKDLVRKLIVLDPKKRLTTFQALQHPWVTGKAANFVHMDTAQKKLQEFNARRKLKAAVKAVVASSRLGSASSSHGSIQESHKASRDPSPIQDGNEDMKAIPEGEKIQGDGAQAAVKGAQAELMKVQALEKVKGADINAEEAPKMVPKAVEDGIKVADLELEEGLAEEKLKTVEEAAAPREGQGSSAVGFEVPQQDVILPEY

[9] = molecular target: Chromodomain-helicase-DNA-binding protein 4 (Homo sapiens, UniProt Q14839)
[10] = molecular target: Insulin-like growth factor 1 receptor (Homo sapiens, UniProt P08069)
[11] = molecular target: Serine/threonine-protein kinase PAK 4 (Homo sapiens, UniProt O96013)
[12] = molecular target: Casein kinase I isoform alpha (Homo sapiens, UniProt P48729)
[13] = molecular target: Serine/threonine-protein kinase 26 (Homo sapiens, UniProt Q9P289)
[14] = molecular target: Tyrosine-protein kinase FRK (Homo sapiens, UniProt P42685)
[15] = molecular target: Tyrosine-protein kinase BTK (Homo sapiens, UniProt Q06187)
Chain of Tyrosine-protein kinase BTK (Q06187 whole entry): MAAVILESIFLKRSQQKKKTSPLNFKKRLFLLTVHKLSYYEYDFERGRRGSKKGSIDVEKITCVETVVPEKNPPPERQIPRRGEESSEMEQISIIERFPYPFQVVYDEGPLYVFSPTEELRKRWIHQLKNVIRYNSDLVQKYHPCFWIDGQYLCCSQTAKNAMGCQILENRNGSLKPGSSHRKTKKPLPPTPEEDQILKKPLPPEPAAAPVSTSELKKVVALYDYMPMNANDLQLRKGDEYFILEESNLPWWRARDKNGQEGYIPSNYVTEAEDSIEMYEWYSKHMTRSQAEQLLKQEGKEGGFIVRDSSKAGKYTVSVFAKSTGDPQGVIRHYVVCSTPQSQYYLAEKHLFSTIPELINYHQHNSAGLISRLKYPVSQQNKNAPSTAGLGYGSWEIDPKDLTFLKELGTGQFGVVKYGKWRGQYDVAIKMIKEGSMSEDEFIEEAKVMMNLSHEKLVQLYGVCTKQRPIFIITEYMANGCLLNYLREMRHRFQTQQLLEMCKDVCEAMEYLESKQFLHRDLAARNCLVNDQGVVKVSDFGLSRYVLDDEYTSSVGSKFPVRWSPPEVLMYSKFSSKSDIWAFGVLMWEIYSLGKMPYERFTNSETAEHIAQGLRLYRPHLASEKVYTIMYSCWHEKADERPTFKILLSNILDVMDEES

Chain of Tyrosine-protein kinase Fer (P16591 whole entry): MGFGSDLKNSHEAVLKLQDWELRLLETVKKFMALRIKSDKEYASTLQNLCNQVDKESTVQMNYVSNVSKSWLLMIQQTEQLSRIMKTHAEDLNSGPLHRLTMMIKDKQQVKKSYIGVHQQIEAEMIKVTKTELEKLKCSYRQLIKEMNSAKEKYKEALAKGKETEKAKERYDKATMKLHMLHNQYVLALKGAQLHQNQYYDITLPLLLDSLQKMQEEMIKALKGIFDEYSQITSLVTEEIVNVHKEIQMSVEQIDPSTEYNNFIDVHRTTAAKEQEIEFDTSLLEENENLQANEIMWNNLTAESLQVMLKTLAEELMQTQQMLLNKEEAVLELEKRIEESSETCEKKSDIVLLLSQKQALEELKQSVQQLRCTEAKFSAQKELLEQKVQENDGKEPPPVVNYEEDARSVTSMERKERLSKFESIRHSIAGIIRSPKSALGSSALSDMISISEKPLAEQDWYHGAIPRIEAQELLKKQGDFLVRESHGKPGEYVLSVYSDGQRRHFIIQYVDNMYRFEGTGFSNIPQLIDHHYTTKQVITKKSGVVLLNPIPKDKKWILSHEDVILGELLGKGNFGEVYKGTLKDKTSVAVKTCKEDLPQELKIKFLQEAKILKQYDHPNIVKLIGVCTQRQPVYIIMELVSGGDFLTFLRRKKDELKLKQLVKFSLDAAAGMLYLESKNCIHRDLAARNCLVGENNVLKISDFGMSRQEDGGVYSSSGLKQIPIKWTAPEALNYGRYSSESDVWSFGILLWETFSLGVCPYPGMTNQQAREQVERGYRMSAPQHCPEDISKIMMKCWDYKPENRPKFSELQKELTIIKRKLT
Chain of Mitogen-activated protein kinase kinase kinase kinase 5 (Q9Y4K4 whole entry): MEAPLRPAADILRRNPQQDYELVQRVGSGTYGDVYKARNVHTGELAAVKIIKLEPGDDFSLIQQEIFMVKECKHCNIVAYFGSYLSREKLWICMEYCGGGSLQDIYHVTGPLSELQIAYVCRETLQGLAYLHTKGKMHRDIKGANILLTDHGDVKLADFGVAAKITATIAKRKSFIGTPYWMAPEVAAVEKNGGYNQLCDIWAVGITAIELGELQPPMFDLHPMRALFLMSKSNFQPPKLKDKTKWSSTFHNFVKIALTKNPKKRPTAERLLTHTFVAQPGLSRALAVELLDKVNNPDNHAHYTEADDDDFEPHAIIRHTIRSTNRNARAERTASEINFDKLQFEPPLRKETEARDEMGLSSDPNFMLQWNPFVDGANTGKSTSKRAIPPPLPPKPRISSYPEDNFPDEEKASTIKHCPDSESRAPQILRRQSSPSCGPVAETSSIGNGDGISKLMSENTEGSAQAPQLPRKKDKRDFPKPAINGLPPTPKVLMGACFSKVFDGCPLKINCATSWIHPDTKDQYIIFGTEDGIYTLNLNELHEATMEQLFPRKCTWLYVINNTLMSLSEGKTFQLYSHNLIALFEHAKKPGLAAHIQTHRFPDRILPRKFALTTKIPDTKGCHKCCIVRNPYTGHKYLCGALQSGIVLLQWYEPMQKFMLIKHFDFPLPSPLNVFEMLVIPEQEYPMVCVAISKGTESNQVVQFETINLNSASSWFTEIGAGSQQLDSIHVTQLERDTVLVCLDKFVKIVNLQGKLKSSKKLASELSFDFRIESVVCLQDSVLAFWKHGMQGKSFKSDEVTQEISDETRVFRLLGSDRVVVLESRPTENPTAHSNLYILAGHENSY
Chain of Insulin-like growth factor 1 receptor (P08069 31-736 limits assumed): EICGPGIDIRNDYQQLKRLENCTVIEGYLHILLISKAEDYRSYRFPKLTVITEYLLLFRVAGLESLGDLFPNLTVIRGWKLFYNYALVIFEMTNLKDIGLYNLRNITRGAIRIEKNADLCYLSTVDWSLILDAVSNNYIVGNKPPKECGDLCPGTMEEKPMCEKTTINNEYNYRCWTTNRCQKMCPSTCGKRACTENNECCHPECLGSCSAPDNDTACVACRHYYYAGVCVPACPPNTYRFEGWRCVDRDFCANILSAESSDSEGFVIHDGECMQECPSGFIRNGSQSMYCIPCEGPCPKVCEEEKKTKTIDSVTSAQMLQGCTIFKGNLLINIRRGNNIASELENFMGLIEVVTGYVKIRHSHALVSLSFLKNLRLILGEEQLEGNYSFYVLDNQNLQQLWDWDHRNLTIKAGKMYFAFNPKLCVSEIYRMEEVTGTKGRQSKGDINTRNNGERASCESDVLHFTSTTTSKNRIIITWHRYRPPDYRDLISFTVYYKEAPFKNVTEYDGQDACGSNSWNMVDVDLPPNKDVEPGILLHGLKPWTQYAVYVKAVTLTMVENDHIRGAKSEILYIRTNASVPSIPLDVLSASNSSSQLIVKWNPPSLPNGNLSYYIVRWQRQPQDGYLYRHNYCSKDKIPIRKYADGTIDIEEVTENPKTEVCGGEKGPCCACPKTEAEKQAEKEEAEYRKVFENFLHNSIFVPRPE
Chain of Insulin-like growth factor 1 receptor (P08069 741-1367 limits assumed): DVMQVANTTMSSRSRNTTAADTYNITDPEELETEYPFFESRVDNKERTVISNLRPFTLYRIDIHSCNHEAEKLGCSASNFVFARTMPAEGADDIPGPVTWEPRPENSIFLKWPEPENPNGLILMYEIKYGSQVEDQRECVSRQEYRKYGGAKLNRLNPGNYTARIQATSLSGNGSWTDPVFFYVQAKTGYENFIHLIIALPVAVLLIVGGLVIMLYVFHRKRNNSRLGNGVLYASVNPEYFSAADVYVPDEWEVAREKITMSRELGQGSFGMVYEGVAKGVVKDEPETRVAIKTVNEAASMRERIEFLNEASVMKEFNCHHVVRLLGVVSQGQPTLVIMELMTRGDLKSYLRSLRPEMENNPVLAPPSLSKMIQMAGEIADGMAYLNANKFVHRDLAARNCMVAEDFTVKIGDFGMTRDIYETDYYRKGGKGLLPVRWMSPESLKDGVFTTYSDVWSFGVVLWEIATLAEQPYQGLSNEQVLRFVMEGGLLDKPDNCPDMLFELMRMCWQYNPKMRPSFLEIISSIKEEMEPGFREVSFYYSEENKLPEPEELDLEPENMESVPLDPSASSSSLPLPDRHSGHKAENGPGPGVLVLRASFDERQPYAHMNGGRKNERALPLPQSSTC
Chain of Adenosine kinase (P55263 whole entry): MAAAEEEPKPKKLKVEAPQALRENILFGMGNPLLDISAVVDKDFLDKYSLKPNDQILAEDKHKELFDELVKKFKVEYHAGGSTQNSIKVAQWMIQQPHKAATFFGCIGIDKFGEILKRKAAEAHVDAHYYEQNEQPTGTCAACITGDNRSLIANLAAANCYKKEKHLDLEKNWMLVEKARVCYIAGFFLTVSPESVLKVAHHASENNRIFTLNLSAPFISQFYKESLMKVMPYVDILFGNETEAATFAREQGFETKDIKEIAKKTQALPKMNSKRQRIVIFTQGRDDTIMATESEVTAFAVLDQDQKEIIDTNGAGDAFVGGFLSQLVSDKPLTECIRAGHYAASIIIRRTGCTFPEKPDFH
Chain of Serine/threonine-protein kinase 26 (Q9P289 whole entry): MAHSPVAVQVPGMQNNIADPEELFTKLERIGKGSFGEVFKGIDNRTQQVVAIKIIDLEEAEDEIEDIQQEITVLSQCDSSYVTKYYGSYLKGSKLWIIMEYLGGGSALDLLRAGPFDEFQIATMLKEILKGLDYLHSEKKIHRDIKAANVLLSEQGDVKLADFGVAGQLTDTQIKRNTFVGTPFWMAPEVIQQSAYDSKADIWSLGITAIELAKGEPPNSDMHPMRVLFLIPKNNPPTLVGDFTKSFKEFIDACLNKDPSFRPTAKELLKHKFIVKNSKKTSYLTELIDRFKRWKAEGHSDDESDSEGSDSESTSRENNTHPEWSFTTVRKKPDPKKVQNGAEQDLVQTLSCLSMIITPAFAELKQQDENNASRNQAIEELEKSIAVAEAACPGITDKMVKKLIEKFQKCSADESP
Chain of Casein kinase I isoform alpha (P48729 whole entry, canonical isoform): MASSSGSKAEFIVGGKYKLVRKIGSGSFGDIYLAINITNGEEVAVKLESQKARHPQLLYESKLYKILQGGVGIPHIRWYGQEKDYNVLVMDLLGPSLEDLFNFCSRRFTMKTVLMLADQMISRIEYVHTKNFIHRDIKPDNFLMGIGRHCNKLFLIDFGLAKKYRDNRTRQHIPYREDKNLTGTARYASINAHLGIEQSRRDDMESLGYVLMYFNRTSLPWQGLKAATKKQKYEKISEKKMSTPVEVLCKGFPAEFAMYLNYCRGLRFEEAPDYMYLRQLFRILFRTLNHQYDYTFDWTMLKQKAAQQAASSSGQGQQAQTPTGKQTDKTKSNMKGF

Kd [1] | Kd [2] | Kd [3] | Kd [4] | Kd [5] | Kd [6] | Kd [7] | Kd [8] | Kd [9] | Kd [10] | Kd [11] | Kd [12] | Kd [13] | Kd [14] | Kd [15] | Compound
> 30 µM (inactive) | > 30 µM (inactive) | > 30 µM (inactive) | > 30 µM (inactive) | > 30 µM (inactive) | > 30 µM (inactive) | > 30 µM (inactive) | > 30 µM (inactive) | > 30 µM (inactive) | > 30 µM (inactive) | > 30 µM (inactive) | > 30 µM (inactive) | > 30 µM (inactive) | > 30 µM (inactive) | > 30 µM (inactive) | C[C@@H]1CN(Cc2ccc(F)cc2)[C@@H](C)CN1C(=O)c1cc2c(C(=O)C(=O)N(C)C)cn(C)c2cc1Cl [TALMAPIMOD]
> 30 µM (inactive) | > 30 µM (inactive) | > 30 µM (inactive) | > 30 µM (inactive) | > 30 µM (inactive) | > 30 µM (inactive) | > 30 µM (inactive) | > 30 µM (inactive) | > 30 µM (inactive) | > 30 µM (inactive) | > 30 µM (inactive) | > 30 µM (inactive) | > 30 µM (inactive) | > 30 µM (inactive) | > 30 µM (inactive) | O=c1sn(-c2cccc3ccccc23)c(=O)n1Cc1ccccc1 [TIDEGLUSIB]
> 30 µM (inactive) | > 30 µM (inactive) | > 30 µM (inactive) | > 30 µM (inactive) | > 30 µM (inactive) | > 30 µM (inactive) | > 30 µM (inactive) | > 30 µM (inactive) | > 30 µM (inactive) | > 30 µM (inactive) | > 30 µM (inactive) | > 30 µM (inactive) | > 30 µM (inactive) | > 30 µM (inactive) | > 30 µM (inactive) | CC(=O)Nc1cccc(-n2c(=O)n(C3CC3)c(=O)c3c(Nc4ccc(I)cc4F)n(C)c(=O)c(C)c32)c1 [TRAMETINIB]
> 30 µM (inactive) | > 30 µM (inactive) | > 30 µM (inactive) | > 30 µM (inactive) | > 30 µM (inactive) | > 30 µM (inactive) | > 30 µM (inactive) | > 30 µM (inactive) | > 30 µM (inactive) | > 30 µM (inactive) | > 30 µM (inactive) | > 30 µM (inactive) | > 30 µM (inactive) | > 30 µM (inactive) | > 30 µM (inactive) | CN1N=C(N)c2cn([C@@H]3O[C@H](COP(=O)(O)O)[C@@H](O)[C@H]3O)c3ncnc1c23 [TRICIRIBINE PHOSPHATE]
> 30 µM (inactive) | > 30 µM (inactive) | > 30 µM (inactive) | > 30 µM (inactive) | > 30 µM (inactive) | > 30 µM (inactive) | > 30 µM (inactive) | > 30 µM (inactive) | > 30 µM (inactive) | > 30 µM (inactive) | > 30 µM (inactive) | > 30 µM (inactive) | > 30 µM (inactive) | > 30 µM (inactive) | > 30 µM (inactive) | CC(C)Nc1cc(-c2c[nH]c(C(=O)N[C@H](CO)c3cccc(Cl)c3)c2)c(Cl)cn1 [ULIXERTINIB]
1.8 µM (active) | > 30 µM (inactive) | > 30 µM (inactive) | > 30 µM (inactive) | > 30 µM (inactive) | > 30 µM (inactive) | > 30 µM (inactive) | > 30 µM (inactive) | > 30 µM (inactive) | > 30 µM (inactive) | > 30 µM (inactive) | > 30 µM (inactive) | > 30 µM (inactive) | > 30 µM (inactive) | > 30 µM (inactive) | CCCS(=O)(=O)Nc1ccc(F)c(C(=O)c2c[nH]c3ncc(-c4ccc(Cl)cc4)cc23)c1F [VEMURAFENIB]
> 30 µM (inactive) | 0.286 µM (active) | > 30 µM (inactive) | > 30 µM (inactive) | > 30 µM (inactive) | > 30 µM (inactive) | > 30 µM (inactive) | > 30 µM (inactive) | > 30 µM (inactive) | > 30 µM (inactive) | > 30 µM (inactive) | > 30 µM (inactive) | > 30 µM (inactive) | > 30 µM (inactive) | > 30 µM (inactive) | CC[C@@H]1C(=O)N(C)c2cnc(Nc3ccc(C(=O)N[C@H]4CC[C@H](N5CCN(CC6CC6)CC5)CC4)cc3OC)nc2N1C(C)C [VOLASERTIB]
> 30 µM (inactive) | > 30 µM (inactive) | > 30 µM (inactive) | > 30 µM (inactive) | > 30 µM (inactive) | > 30 µM (inactive) | > 30 µM (inactive) | > 30 µM (inactive) | > 30 µM (inactive) | > 30 µM (inactive) | > 30 µM (inactive) | > 30 µM (inactive) | > 30 µM (inactive) | > 30 µM (inactive) | > 30 µM (inactive) | CCn1c(=O)c(-c2cc[nH]n2)cc2c(C)nc(N)nc21 [VOXTALISIB]
> 30 µM (inactive) | > 30 µM (inactive) | 2.96 µM (active) | > 30 µM (inactive) | > 30 µM (inactive) | > 30 µM (inactive) | > 30 µM (inactive) | > 30 µM (inactive) | > 30 µM (inactive) | > 30 µM (inactive) | > 30 µM (inactive) | > 30 µM (inactive) | > 30 µM (inactive) | > 30 µM (inactive) | > 30 µM (inactive) | O=C(Nc1ccc(-c2ccnc(Nc3ccc(N4CCOCC4)cc3)n2)cc1)C1CCCN1 (stereo not given) [XL-019]
